Data taken from paper PMC9518609, “Design and synthesis of new trimethoxylphenyl-linked combretastatin analogues loaded on diamond nanoparticles as a panel for ameliorated solubility and antiproliferative activity” (Journal of Enzyme Inhibition and Medicinal Chemistry, 2022).

Key:
Format in all cases: cell-based
MDA-MB-231 = assay: MTT cytotoxic activity against breast MDA-MB-231 cancer cell line; conditions: Homo sapiens, MDA-MB-231; MTT assay, 24 h treatment
From the text: (§1) All the synthesised compounds were screened for their cytotoxic activity against breast MDA-MB-231 cancer cell line and compounds 6 and 12 against breast MCF-10A cell line taking CA-4 as a positive control for the analysis. The in vitro cytotoxicity results of the prepared compounds were systematised in Table 1. […] Structurally, the prepared molecules contain three structural variations; including rotatable hydrazide derivatives, the core exchange with imidazolone ring, and the ring expansion with triazinone motif. […] It is noticed that directly attached benzene ring to triazinone scaffold (compound 6) or bioisosteric group (thiazolyl ester) as in compound 12, may contribute to the astonishing cytotoxicity against breast MDA-MB-231 cancer cells.
To measure the cytotoxic activity of the synthesised derivatives 2a–13e in breast cancer (MDA-MB-231) cell line. MTT assay method was applied to assess cell viability assay. All experimental steps were conducted as reported earlier.
(§2) Part I: Biological Studies
(§3) 4.3. Biological evaluation
(§4) 4.3.1. Cytotoxic activity evaluation
(§5) The cytotoxic actvity of the synthesized derivatives 2a-13e was measured in MDA-MB-231 breast cancer cell line and derivatives 6 and 12 in MCF-10A […].
(§6) Cell viability assay was assessed using MTT assay method. Cells at density of 1 x 104 were seeded in a 96-well plate at 37 °C for 24 h under 5% CO2. After incubation, the cells were treated with different concentrations of the test schiff bases 2a-13e and incubated for 24 h, then 20 µl of MTT solution at 5 mg/mL was applied and incubated for 4 h at 37 °C.
Dimethyl sulphoxide (DMSO) in volume of 100 µl was added to each well to dissolve the purple formazan that had formed. The color intensity of the formazan product, which represents the growth condition of the cells, is quantified by using an ELISA plate reader (EXL 800, USA) at 570 nm absorbance. The experimental conditions were carried out with at least three replicates, and the experiments were repeated at least three times. […]

MCF-10A = assay: MTT cytotoxic activity against breast MCF-10A cell line; conditions: Homo sapiens, MCF-10A; MTT assay, 24 h treatment
From the text: as §1, §2, §3, §4, §5, §6
Dimethyl sulphoxide (DMSO) in volume of 100 µl was added to each well to dissolve the purple formazan that had formed. The color intensity of the formazan product, which represents the growth condition of the cells, is quantified by using an ELISA plate reader (EXL 800, USA) at 570 nm absorbance. […]
(§7) Compounds 6, 12 and CA-4 were evaluated for their tubulin inhibitory activity according to manufacturer’s instructions using # abcam Human Beta-tubulin simplestep ELISA Kit ab245722. MDA-MB-231 cells were trypsinized, counted and seeded at the 2 × 105 into 96-well micro titer plates. […]
(§8) (O.D.) was measured at 450±10 nm using microplate reader (Spectromax Plus 96 well plate […]

β-tubulin = β-tubulin polymerisation inhibition assay (Human Beta-tubulin ELISA kit) on MDA-MB-231 cells; conditions: MDA-MB-231 cell line, each compound at its IC50 concentration
Procedure: Trimethoxy phenyl fragment-containing natural stilbenoid-derived molecules, such as Colchicine and CA-4 bind to β-tubulin subunit at the colchicine binding site resulting in inhibition of microtubule assembly and suppression of its formation. […] From the obtained results it can be concluded that the antiproliferative activity of the synthesised triazinone-linked CA-4 derivatives may be derived from the inhibition of microtubule assembly.
Triazinone derivatives 6 and 12 were assessed for their tubulin inhibitory activity according to manufacturer’s instructions using # abcam Human Beta-tubulin simple step ELISA Kit ab245722.
as §2, §3, §4, §5, §6
Dimethyl sulphoxide (DMSO) in volume of 100 µl was added to each well to dissolve the purple formazan that had formed. The color intensity of the formazan product, which represents the growth condition of the cells, is quantified by using an ELISA plate reader (EXL 800, USA) at 570 nm absorbance. The experimental conditions were carried out with at least three replicates, and the experiments were repeated at least three times.
4.3.2. Tubulin inhibitions Assay
as §7, §8

Q: With `COc1ccc(/C=C\c2cc(OC)c(OC)c(OC)c2)cc1O` [CA-4, Combretastatin-A4, reference compound] as the compound, how does the IC50 (MDA-MB-231) read?
A: 0.55 ± 0.09 µM

Q: And the IC50 (MCF-10A)?
A: 8.91 ± 0.71 µM

Q: What about the “% Inhibition of β-tubulin polymerisation” value (β-tubulin) of the same compound?
A: 87.05 ± 0.08%
